Experimental findings from patent publication US8329704B2, “Substituted pyrazinone derivatives for use in MCH-1 mediated diseases” (Janssen Pharmaceutica, N.V., priority 2005, dated 2012) are described below.

The target of this assay is T1, human MCH-1 receptor (Homo sapiens, UniProt Q99705).
T1 construct: expressed in transfected cells
T1 sequence (Q99705 whole entry): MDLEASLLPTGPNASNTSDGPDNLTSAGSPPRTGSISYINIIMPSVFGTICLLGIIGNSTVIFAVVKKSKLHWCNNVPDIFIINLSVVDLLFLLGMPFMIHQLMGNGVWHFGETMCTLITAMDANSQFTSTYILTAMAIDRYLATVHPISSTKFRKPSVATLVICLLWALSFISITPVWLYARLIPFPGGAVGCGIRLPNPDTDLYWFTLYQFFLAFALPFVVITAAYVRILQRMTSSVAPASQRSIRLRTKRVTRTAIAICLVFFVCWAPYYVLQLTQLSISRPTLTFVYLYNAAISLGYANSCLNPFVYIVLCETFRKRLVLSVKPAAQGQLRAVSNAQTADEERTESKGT
The experiment in a line: Ca2+ mobilization experiment for the MCH-1 receptor (FLIPR), inhibition of MCH-induced Ca2+ mobilization. The class given is cell-based. The following applies: CHO cells stably expressing human MCH-1 receptor, inhibition of MCH-induced Ca2+ response, read-out: MCH-1 pIC50 (converted). As to the method:
The interaction of the compounds of Formula (I) with MCH-1 receptors was assessed in in vitro transient calcium (Ca^2+) mobilization assays in the fluorimetric imaging plate reader (FLIPR) format (Sullivan et al. 1999, Methods Mol Biol 114:125-133). In general, the natural agonist (MCH) is incubated with cells expressing the MCH-1 receptor, which elicits a concentration-dependent transient mobilization of Ca^2+ from internal stores. The interaction of the test compounds with the receptor is assessed in competition experiments. Various concentrations of the test compound are added to the incubation mixture containing the receptor-expressing cells and a submaximal concentration of MCH. The test compound in proportion to its antagonist potency and its concentration inhibits MCH-induced Ca^2+ mobilization.
Chinese Hamster ovary cells (CHO) stably expressing the human MCH-1 receptor are grown in a 1:1 mixture of Dulbecco's Modified Eagles Medium (DMEM) and HAM's F12 medium including Glutamax™ (Invitrogen), supplemented with 10% heat-inactivated fetal bovine serum and 400 μg/ml geneticin.
Twenty-four hours before the experiment, MCH-1 receptor-expressing CHO cells are seeded in 20 μl (5,000 cells per well) into 384-well black wall, clear bottom microtiter plates (Costar). On the day of the experiment, 20 μl per well calcium assay kit containing 10 mM probenicide (Molecular Devices) is added. Cells are loaded for 90 min at 37° C. and 5% CO2 in a cell culture incubator. After loading, 20 μl of serial dilutions of the test compound are added and cells are further incubated for 20 min at room temperature in the dark. After 20 min, 20 μl of a submaximal MCH concentration is added and changes in intracellular calcium are recorded directly in a FLIPR III apparatus (Molecular devices).
Data from assays in the presence of compound were calculated as a percentage of total Ca^2+-responses measured in the absence of test compound. Inhibition curves, plotting percent of total Ca^2+-responses versus the log value of the concentration of the test compound, were automatically generated, and sigmoidal inhibition curves were fitted using non-linear regression. The pIC50 values of test compounds were derived from individual curves.
As for `O=c1c(NCCOc2ccccc2)nccn1-c1ccc(OCCCCN2CCCC2)cc1` [1-47], the IC50 is 1000 nM.

Regarding `CCCN1CCC(Nc2ccc(-n3ccnc(NCCc4ccccc4)c3=O)cc2OC)C1` (stereo not drawn) [3-26], the IC50 was 39.8 nM.

For `O=c1c(NCCOc2ccccc2)nccn1-c1ccc(C=CCN2CCCC2)cc1` [1-16], the IC50 was 100 nM.

Take `COc1cccc(CCNc2nccn(-c3ccc(OCCN4CCCC4)c(OC)c3)c2=O)c1` [2-35]: the IC50 is 31.6 nM.

Turning to `COc1cc(-n2ccnc(SCCc3ccccc3)c2=O)ccc1N1CCC(O)CC1` [6-11], the IC50 was 126 nM.

Consider `COc1cc(-n2ccnc(NCCc3ccccc3)c2=O)ccc1OCC1CCCN1C(=O)OC(C)(C)C` (stereo not drawn) [3-36], for which the IC50 is 126 nM.

As to `COc1cc(-n2ccnc(NCCOc3ccccc3)c2=O)ccc1OCCCN1CCCCC1` [1-77], the IC50 was 50.1 nM.

Take `NC(=O)c1cc(-n2ccnc(NCCOc3ccccc3)c2=O)ccc1OCCN1CCCC1` [1-55]: the IC50 was 1000 nM.

Regarding `COc1cc(-n2ccnc(NCCOc3ccccc3)c2=O)ccc1/C=C/CN1CCCC1` [1-17], the IC50 was 31.6 nM.

For the molecule `NC(=O)C1CCN(CCOc2ccc(-n3ccnc(NCCOc4ccccc4)c3=O)cc2)CC1` [1-41], the IC50 is 631 nM.

Regarding `COc1cc(-n2ccnc(NCCOc3ccccc3)c2=O)ccc1OCCCN1CCC(F)(F)CC1` [1-79], the IC50 was 39.8 nM.

As for `O=c1c(NCCOc2ccccc2)nccn1-c1ccc(OCCN2CCCC2)cc1` [1-35], the IC50 was 501 nM.

Regarding `COc1cc(-n2ccnc(NCCOc3cccc(Cl)c3)c2=O)ccc1OCCN1CCCC1` [2-30], the IC50 was 50.1 nM.

For `COc1cc(-n2ccnc(NCCc3ccccc3)c2=O)ccc1OCCN1CC[C@H](F)C1` [3-46], the IC50 is 50.1 nM.

As to `O=c1c(NCCc2ccccc2)nccn1CCc1ccc(CN2CCOCC2)cc1` [9-02], the IC50 is 39.8 nM.

In the case of `COc1cc(-n2ccnc(SCCc3ccccc3)c2=O)ccc1C=CCN1CCOCC1` [6-13], the IC50 was 20 nM.

Consider `COc1cc(-n2ccnc(NCCc3ccccc3)c2=O)ccc1C=CCN1CCOCC1` [3-23], for which the IC50 was 39.8 nM.

In the case of `COc1cc(-n2ccnc(NCCc3ccccc3)c2=O)ccc1OCCCN1CCC(O)C1` (stereo not drawn) [3-70], the IC50 was 50.1 nM.

In the case of `COc1cc(-n2ccnc(NCCc3ccccc3)c2=O)ccc1OCCN1CCOCC1` [3-59], the IC50 is 50.1 nM.

For the molecule `COc1cc(-n2ccnc(NCCc3ccccc3)c2=O)ccc1N1CCC(N)C1` (stereo not drawn) [3-08], the IC50 was 39.8 nM.

As to `CN(C)CCNc1ccc(-n2ccnc(NCCOc3ccccc3)c2=O)cc1` [1-19], the IC50 is 100 nM.

As to `COc1cc(-n2ccnc(NCCc3ccccc3)c2=O)ccc1OCCNC1CC1` [3-41], the IC50 was 25.1 nM.

Regarding `COc1cc(-n2ccnc(NCCOc3ccccc3)c2=O)ccc1N1CCC(NC(C)=O)CC1` [1-14], the IC50 is 316 nM.

Regarding `COc1cc(-n2ccnc(NCCCOc3ccc(Cl)cc3Cl)c2=O)ccc1OCCN1CCCC1` [2-41], the IC50 is 631 nM.

On to `COc1cc(-n2ccnc(N3CCCC(c4ccc(F)cc4)C3)c2=O)ccc1OCCN1CCCC1` (stereo not drawn) [4-03], for which the IC50 was 2000 nM.

As for `O=c1c(SCCc2ccccc2)nccn1-c1ccc(OCCN2CCCC2)cc1` [2-10], the IC50 was 31.6 nM.

As for `COc1cc(-n2ccnc(NCCOc3ccccc3)c2=O)ccc1OCCN1CCCC(CO)C1` (stereo not drawn) [1-72], the IC50 was 50.1 nM.

For `CC(C)N(CCOc1ccc(-n2ccnc(NCCOc3ccccc3)c2=O)cc1)C(C)C` [1-28], the IC50 is 501 nM.

For the molecule `COc1cc(-n2ccnc(NCCOc3ccccc3C)c2=O)ccc1OCCN1CCCC1` [2-33], the IC50 was 200 nM.

As for `COc1cc(-n2ccnc(NCCc3ccccc3)c2=O)ccc1OC[C@H]1CCCN1` [3-34], the IC50 is 25.1 nM.

Consider `COc1cc(-n2ccnc(NCCOc3ccccc3)c2=O)ccc1OCCN(C)C(=O)CN(C)C` [1-63], for which the IC50 was 200 nM.

With `COc1cc(-n2ccnc(NCCc3ccccc3)c2=O)ccc1OCCN(C)C1CC1` [3-42], the IC50 was 31.6 nM.

In the case of `COc1cc(-n2ccnc(NCCc3ccccc3)c2=O)ccc1N1CCC(NC2CC2)C1` (stereo not drawn) [3-16], the IC50 was 50.1 nM.
